Source: patent US20210267203A1, “PESTICIDALLY ACTIVE AZOLE-AMIDE COMPOUNDS” (SYNGENTA PARTICIPATIONS AG, priority 2018, published 2021)

Columns and labels:
Type in all cases: in vivo
[1] = system: Euschistus heros (Neotropical Brown Stink Bug); test: Example B2: Euschistus heros (neotropical brown stink bug), soybean leaves sprayed, N2 nymphs; conditions: 120 h, application rate 200 ppm, 5 days after infestation, read-out: effect in at least one of the two categories (mortality or growth inhibition)
Experimental: Example B2: Euschistus heros (Neotropical Brown Stink Bug)
Soybean leaves on agar in 24-well microtiter plates were sprayed with aqueous test solutions prepared from 10,000 ppm DMSO stock solutions. After drying the leaves were infested with N2 nymphs. The samples were assessed for mortality and growth inhibition in comparison to untreated samples 5 days after infestation.
The following compounds gave an effect of at least 80% in at least one of the two categories (mortality or growth inhibition) at an application rate of 200 ppm: […]

[2] = system: Plutella xylostella (Diamondback Moth); test: Example B14: activity against Plutella xylostella (diamondback moth), 96-well artificial diet; conditions: 216 h, application rate 500 ppm, 9 days after infestation
How it was run: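 Diet in 96-well plates was treated with aqueous dilutions of 10,000 ppm DMSO stocks, dried, and infested with 30 eggs per well via a netted lid; hatching L1 larvae fed on the diet. Mortality scored 9 days after infestation.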

[3] = system: Myzus persicae (Green Peach Aphid); test: Example B8: Myzus persicae (green peach aphid), intrinsic activity; conditions: 120 h, test rate 12 ppm, sucrose solution, 24-well, 5 days after infestation
Description: Example B8: Myzus persicae (Green Peach Aphid), Intrinsic Activity
Test compounds prepared from 10,000 ppm DMSO stock solutions were applied by pipette into 24-well microtiter plates and mixed with sucrose solution. The plates were closed with a stretched Parafilm. A plastic stencil with 24 holes was placed onto the plate and infested pea seedlings were placed directly on the Parafilm. The infested plate was closed with a gel blotting paper and another plastic stencil and then turned upside down. The samples were assessed for mortality 5 days after infestation.

[4] = system: Spodoptera littoralis (Egyptian Cotton Leaf Worm); test: Example B10: Spodoptera littoralis (Egyptian cotton leaf worm), uptake by lettuce roots from agar, eggs; conditions: 144 h, test rate 12.5 ppm, lettuce root uptake, 6 days after infestation, read-out: effect in at least one of the three categories (mortality, anti-feeding, or growth inhibition)
Description: Example B10: Spodoptera littoralis (Egyptian Cotton Leaf Worm)
Test compounds were applied by pipette from 10,000 ppm DMSO stock solutions into 24-well plates and mixed with agar. Lettuce seeds were placed onto the agar and the multi well plate was closed by another plate which contained also agar. After 7 days the compound was absorbed by the roots and the lettuce grew into the lid plate. The lettuce leaves were then cut off into the lid plate. Spodoptera eggs were pipetted through a plastic stencil onto a humid gel blotting paper and the lid plate was closed with it. The samples were assessed for mortality, anti-feedant effect and growth inhibition in comparison to untreated samples 6 days after infestation.
The following compounds gave an effect of at least 80% in at least one of the three categories (mortality, anti-feeding, or growth inhibition) at a test rate of 12.5 ppm: […]

[5] = system: Thrips tabaci (Onion Thrips); test: Example B12: Thrips tabaci (onion thrips), feeding/contact activity; conditions: 144 h, application rate 200 ppm, mixed ages, 6 days after infestation
Experimental: Example B12: Thrips tabaci (Onion Thrips) Feeding/Contact Activity
Sunflower leaf discs were placed on agar in 24-well microtiter plates and sprayed with aqueous test solutions prepared from 10,000 ppm DMSO stock solutions. After drying the leaf discs were infested with a thrips population of mixed ages. The samples were assessed for mortality 6 days after infestation.

[6] = system: Diabrotica Balteata (Corn Root Worm); test: Example B1: Diabrotica balteata (corn root worm), maize sprouts sprayed, L2 larvae; conditions: 96 h, application rate 200 ppm, 4 days after infestation, read-out: effect in at least one of the two categories (mortality or growth inhibition)
How it was run: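 Maize sprouts on agar sprayed with aqueous dilutions of 10,000 ppm DMSO stocks, dried, then infested with 6–10 L2 larvae per well. Mortality and growth inhibition scored against untreated samples 4 days after infestation; rates of 200 ppm.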

[7] = system: Myzus persicae (Green Peach Aphid); test: Example B13: activity against Myzus persicae (green peach aphid), 96-well sucrose solution; conditions: 120 h, application rate 50 ppm, 5 days after infestation
How it was run: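 Compounds, from 10,000 ppm DMSO stocks, mixed into sucrose solution in wells under stretched Parafilm, with aphids placed on the membrane in an inverted feeding setup. Mortality scored 5 days after infestation.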

[8] = system: Chilo suppressalis (Striped Rice Stemborer); test: Example B4: Chilo suppressalis (striped rice stemborer), artificial diet, L2 larvae; conditions: 144 h, application rate 200 ppm, 6 days after infestation
Experimental: Example B4: Chilo suppressalis (Striped Rice Stemborer)
24-well microtiter plates with artificial diet were treated with aqueous test solutions prepared from 10,000 ppm DMSO stock solutions by pipetting. After drying, the plates were infested with L2 larvae (6-8 per well). The samples were assessed for mortality, anti-feeding effect, and growth inhibition in comparison to untreated samples 6 days after infestation. Control of Chilo suppressalis by a test sample is given when at least one of the categories (i.e. mortality, anti-feedant effect, and growth inhibition) is higher than the untreated sample.

[9] = system: Spodoptera littoralis (Egyptian Cotton Leaf Worm); test: Example B9: Spodoptera littoralis (Egyptian cotton leaf worm), cotton leaf discs sprayed, L1 larvae; conditions: foliar, 72 h, application rate 200 ppm, 3 days after infestation
How it was run: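 Leaf discs on agar sprayed with aqueous dilutions from 10,000 ppm DMSO stock, dried, then infested with five L1 larvae. Mortality, anti-feeding and growth inhibition scored against untreated samples 3 days after infestation; control counted when any category exceeds untreated.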

[10] = system: Plutella xylostella (Diamond Back Moth); test: Example B5: Plutella xylostella (diamond back moth), artificial diet, 24-well, eggs; conditions: 192 h, application rate 200 ppm, 8 days after infestation, read-out: effect in at least one of the two categories (mortality or growth inhibition)
How it was run: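 Artificial diet in 24-well plates treated with aqueous dilutions of 10,000 ppm DMSO stocks, dried, then infested with Plutella eggs. Mortality and growth inhibition scored against untreated samples 8 days after infestation; activity rated at 200 ppm application rate.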

[11] = system: Myzus persicae (Green Peach Aphid); test: Example B6: Myzus persicae (green peach aphid), feeding/contact activity; conditions: 144 h, application rate 200 ppm, 6 days after infestation
Experimental: Example B6: Myzus persicae (Green Peach Aphid):Feeding/Contact Activity
Sunflower leaf discs were placed onto agar in a 24-well microtiter plate and sprayed with aqueous test solutions prepared from 10,000 ppm DMSO stock solutions. After drying, the leaf discs were infested with an aphid population of mixed ages. The samples were assessed for mortality 6 days after infestation.

CC(NC(=O)c1cc(C2CC2C(F)(F)F)cc(C(F)(F)F)c1)c1ncnn1-c1ncccn1 (stereo not drawn) [P25, N-[1-(2-pyrimidin-2-yl-1,2,4-triazol-3-yl)ethyl]-3-(trifluoromethyl)-5-[2-(trifluoromethyl)cyclopropyl]benzamide]
≥ 80%: percent effect (mortality or growth inhibition) at 200 ppm [1] | mortality at 500 ppm [2] | mortality at 12 ppm [3] | percent effect (mortality, anti-feeding or growth inhibition) at 12.5 ppm [4] | mortality at 200 ppm [5] | percent effect (mortality or growth inhibition) at 200 ppm [6] | mortality at 50 ppm [7] | percent control (mortality, anti-feedant effect or growth inhibition) at 200 ppm [8] | percent control (mortality, anti-feedant effect or growth inhibition) at 200 ppm [9] | percent effect (mortality or growth inhibition) at 200 ppm [10]

CC(c1ncnn1-c1ncccn1)N(CC1CC1)C(=O)c1cc(Cl)cc(C2(C#N)CC2)n1 (stereo not drawn) [P29, 4-chloro-6-(1-cyanocyclopropyl)-N-(cyclopropylmethyl)-N-[1-(2-pyrimidin-2-yl-1,2,4-triazol-3-yl)ethyl]pyridine-2-carboxamide]
≥ 80%: percent effect (mortality or growth inhibition) at 200 ppm [1] | mortality at 500 ppm [2] | mortality at 12 ppm [3] | mortality at 200 ppm [5] | percent effect (mortality or growth inhibition) at 200 ppm [6] | mortality at 50 ppm [7] | percent effect (mortality or growth inhibition) at 200 ppm [10]

CC(c1ncnn1-c1ncccn1)N(CC1CC1)C(=O)c1cc(C(F)(F)F)cc(S(=O)(=O)C(F)F)c1 (stereo not drawn) [P30, N-(cyclopropylmethyl)-3-(difluoromethylsulfonyl)-N-[1-(2-pyrimidin-2-yl-1,2,4-triazol-3-yl)ethyl]-5-(trifluoromethyl)benzamide]
≥ 80%: percent effect (mortality or growth inhibition) at 200 ppm [1] | mortality at 500 ppm [2] | mortality at 12 ppm [3] | mortality at 200 ppm [5] | percent effect (mortality or growth inhibition) at 200 ppm [6] | mortality at 50 ppm [7] | percent effect (mortality or growth inhibition) at 200 ppm [10]

CC(c1ncnn1-c1ncccn1)N(CC1CC1)C(=O)c1cc(C(F)(F)F)nc(C2(C#N)CC2)c1 (stereo not drawn) [P32, 2-(1-cyanocyclopropyl)-N-(cyclopropylmethyl)-N-[1-(2-pyrimidin-2-yl-1,2,4-triazol-3-yl)ethyl]-6-(trifluoromethyl)pyridine-4-carboxamide]
≥ 80%: percent effect (mortality or growth inhibition) at 200 ppm [1] | mortality at 500 ppm [2] | percent effect (mortality, anti-feeding or growth inhibition) at 12.5 ppm [4] | mortality at 200 ppm [5] | percent effect (mortality or growth inhibition) at 200 ppm [6] | mortality at 50 ppm [7] | percent control (mortality, anti-feedant effect or growth inhibition) at 200 ppm [8] | percent control (mortality, anti-feedant effect or growth inhibition) at 200 ppm [9] | percent effect (mortality or growth inhibition) at 200 ppm [10]

CC(c1ncnn1-c1ncccn1)N(CC1CC1)C(=O)c1cc(C(F)(F)F)cc(C2(C)CC2C(F)(F)F)c1 (stereo not drawn) [P43, N-(cyclopropylmethyl)-3-[1-methyl-2-(trifluoromethyl)cyclopropyl]-N-[1-(2-pyrimidin-2-yl-1,2,4-triazol-3-yl)ethyl]-5-(trifluoromethyl)benzamide]
≥ 80%: mortality at 500 ppm [2] | mortality at 12 ppm [3] | percent effect (mortality, anti-feeding or growth inhibition) at 12.5 ppm [4] | percent effect (mortality or growth inhibition) at 200 ppm [6] | mortality at 50 ppm [7] | percent control (mortality, anti-feedant effect or growth inhibition) at 200 ppm [8] | percent control (mortality, anti-feedant effect or growth inhibition) at 200 ppm [9] | percent effect (mortality or growth inhibition) at 200 ppm [10]

CC(c1ncnn1-c1ncccn1)N(CC1CC1)C(=O)c1cc(C2CC2)cc(C(F)(F)F)c1 (stereo not drawn) [P52, 3-cyclopropyl-N-(cyclopropylmethyl)-N-[1-(2-pyrimidin-2-yl-1,2,4-triazol-3-yl)ethyl]-5-(trifluoromethyl)benzamide]
≥ 80%: percent effect (mortality or growth inhibition) at 200 ppm [1] | mortality at 500 ppm [2] | mortality at 12 ppm [3] | mortality at 200 ppm [5] | percent effect (mortality or growth inhibition) at 200 ppm [6] | mortality at 50 ppm [7] | percent control (mortality, anti-feedant effect or growth inhibition) at 200 ppm [9] | percent effect (mortality or growth inhibition) at 200 ppm [10]

CC(NC(=O)c1cc(C2CC2)nc(C(F)(F)F)c1)c1ncnn1-c1ncccn1 (stereo not drawn) [P54, 2-cyclopropyl-N-[1-(2-pyrimidin-2-yl-1,2,4-triazol-3-yl)ethyl]-6-(trifluoromethyl)pyridine-4-carboxamide]
≥ 80%: percent effect (mortality or growth inhibition) at 200 ppm [1] | mortality at 500 ppm [2] | mortality at 12 ppm [3] | percent effect (mortality, anti-feeding or growth inhibition) at 12.5 ppm [4] | percent effect (mortality or growth inhibition) at 200 ppm [6] | mortality at 50 ppm [7] | percent control (mortality, anti-feedant effect or growth inhibition) at 200 ppm [9] | percent effect (mortality or growth inhibition) at 200 ppm [10]

CC(c1ncnn1-c1ncccn1)N(C)C(=O)c1cc(C(F)(F)F)cc(C(F)(F)C2CC2)c1 (stereo not drawn) [P58, 3-[cyclopropyl(difluoro)methyl]-N-methyl-N-[1-(2-pyrimidin-2-yl-1,2,4-triazol-3-yl)ethyl]-5-(trifluoromethyl)benzamide]
≥ 80%: percent effect (mortality or growth inhibition) at 200 ppm [1] | mortality at 500 ppm [2] | mortality at 12 ppm [3] | percent effect (mortality, anti-feeding or growth inhibition) at 12.5 ppm [4] | percent effect (mortality or growth inhibition) at 200 ppm [6] | mortality at 50 ppm [7] | percent control (mortality, anti-feedant effect or growth inhibition) at 200 ppm [8] | percent control (mortality, anti-feedant effect or growth inhibition) at 200 ppm [9] | percent effect (mortality or growth inhibition) at 200 ppm [10]

CC(NC(=O)c1cc(C(F)(F)F)cc(C(F)(F)C2CC2)c1)c1ncnn1-c1ncccn1 (stereo not drawn) [P59, 3-[cyclopropyl(difluoro)methyl]-N-[1-(2-pyrimidin-2-yl-1,2,4-triazol-3-yl)ethyl]-5-(trifluoromethyl)benzamide]
≥ 80%: percent effect (mortality or growth inhibition) at 200 ppm [1] | mortality at 500 ppm [2] | mortality at 12 ppm [3] | percent effect (mortality, anti-feeding or growth inhibition) at 12.5 ppm [4] | percent effect (mortality or growth inhibition) at 200 ppm [6] | mortality at 50 ppm [7] | percent control (mortality, anti-feedant effect or growth inhibition) at 200 ppm [8] | percent control (mortality, anti-feedant effect or growth inhibition) at 200 ppm [9] | percent effect (mortality or growth inhibition) at 200 ppm [10]

CC(NC(=O)c1cc(C2CC2(F)F)cc(C(F)(F)F)c1)c1ncnn1-c1ncccn1 (stereo not drawn) [P87, 3-(2,2-difluorocyclopropyl)-N-[1-(2-pyrimidin-2-yl-1,2,4-triazol-3-yl)ethyl]-5-(trifluoromethyl)benzamide]
≥ 80%: percent effect (mortality or growth inhibition) at 200 ppm [1] | mortality at 12 ppm [3] | percent effect (mortality, anti-feeding or growth inhibition) at 12.5 ppm [4] | percent effect (mortality or growth inhibition) at 200 ppm [6] | mortality at 50 ppm [7] | percent control (mortality, anti-feedant effect or growth inhibition) at 200 ppm [8] | percent control (mortality, anti-feedant effect or growth inhibition) at 200 ppm [9] | mortality at 200 ppm [11] | percent effect (mortality or growth inhibition) at 200 ppm [10]
